These are literature values, as cited in patent publication US9220759B2, “Treatment of diabetic patients with a drug eluting stent and adjunctive therapy” (Abbott Cardiovascular Systems Inc., priority 2012, dated 2015).

The test system of this data set is restenosis after bare metal stent implantation. As to conditions: diabetic patients prescribed the drug, compared to the control group, study of limited size.

For `CN(CCOc1ccc(CC2SC(=O)NC2=O)cc1)c1ccccn1` (stereo not shown) [rosiglitzone, rosiglitazone], the rate of restenosis result is listed as “reduction in the rate of restenosis”.
